Assay results from PubChem BioAssay AID1963961 (Molecular Pharmacology Branch, DTP, NCI, 2024).
Where “and” joins values, the source holds several entries; their conditions need not be identical. Equal entries are not always repeated. Values belong to the molecule of their own block, whether it stands above or below them.

Tested on: K98450-129-R-PDC multicell spheroids, viability
Test: Anticancer human tumor K98450-129-R-PDC patient-derived colon adenocarcinoma cell line growth inhibition [PI3K]
Conditions: for viability, T/C: stronger effect = lower value
In short: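 We assembled tumor spheroids that included a stromal compartment of HUVEC and MSCs, then exposed them to targeted agents alone and together with PI3K pathway inhibitors. Concentration series descended by half-log from clinically achievable Cmax levels. Viability served as the endpoint.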
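Note: spheroids exposed to agents for seven days before read-out.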

- IC50 (curve of first compound, second compound 0.0316 µM): > 10 µM
- IC50 (curve of first compound, second compound 0.1 µM): > 10 µM
- IC50 (curve of first compound, second compound 0.316 µM): > 10 µM
- IC50 (curve of first compound, second compound 1 µM): > 10 µM
- IC50 (curve of first compound, second compound 3.16 µM): > 10 µM
- IC50 (curve of first compound, second compound 10 µM): > 10 µM
SMILES: C#Cc1c(F)ccc2cc(O)cc(-c3ncc4c(N5CC6CCC(C5)N6)nc(OCC56CCCN5CC(F)C6)nc4c3F)c12 (centres undefined) + CC(Nc1ncnc2nc[nH]c12)c1cc2cccc(Cl)c2c(=O)n1-c1ccccc1
- viability, T/C (second compound 0.0316 µM, first compound 0.0316 µM): 120%
- viability, T/C (second compound 0.0316 µM, first compound 0.1 µM): 101%
- viability, T/C (second compound 0.0316 µM, first compound 0.316 µM): 99.1%
- viability, T/C (second compound 0.0316 µM, first compound 1 µM): 91.7%
- viability, T/C (second compound 0.0316 µM, first compound 3.16 µM): 90.9%
- viability, T/C (second compound 0.0316 µM, first compound 10 µM): 92.9%
- viability, T/C (second compound 0.1 µM, first compound 0.0316 µM): 116%
- viability, T/C (second compound 0.1 µM, first compound 0.1 µM): 98.7%
- viability, T/C (second compound 0.1 µM, first compound 0.316 µM): 96.4%
- viability, T/C (second compound 0.1 µM, first compound 1 µM): 90.1%
- viability, T/C (second compound 0.1 µM, first compound 3.16 µM): 98.2%
- viability, T/C (second compound 0.1 µM, first compound 10 µM): 90.6%
- viability, T/C (second compound 0.316 µM, first compound 0.0316 µM): 110%
- viability, T/C (second compound 0.316 µM, first compound 0.1 µM): 106%
- viability, T/C (second compound 0.316 µM, first compound 0.316 µM): 91.1%
- viability, T/C (second compound 0.316 µM, first compound 1 µM): 100%
- viability, T/C (second compound 0.316 µM, first compound 3.16 µM): 101%
- viability, T/C (second compound 0.316 µM, first compound 10 µM): 96.2%
- viability, T/C (second compound 1 µM, first compound 0.0316 µM): 98.9%
- viability, T/C (second compound 1 µM, first compound 0.1 µM): 91.6%
- viability, T/C (second compound 1 µM, first compound 0.316 µM): 104%
- viability, T/C (second compound 1 µM, first compound 1 µM): 84.1%
- viability, T/C (second compound 1 µM, first compound 3.16 µM): 115%
- viability, T/C (second compound 1 µM, first compound 10 µM): 77.5%
- viability, T/C (second compound 3.16 µM, first compound 0.0316 µM): 89.4%
- viability, T/C (second compound 3.16 µM, first compound 0.1 µM): 89.9%
- viability, T/C (second compound 3.16 µM, first compound 0.316 µM): 93.5%
- viability, T/C (second compound 3.16 µM, first compound 1 µM): 85.1%
- viability, T/C (second compound 3.16 µM, first compound 3.16 µM): 92%
- viability, T/C (second compound 3.16 µM, first compound 10 µM): 87.4%
- viability, T/C (second compound 10 µM, first compound 0.0316 µM): 87.5%
- viability, T/C (second compound 10 µM, first compound 0.1 µM): 98.2%
- viability, T/C (second compound 10 µM, first compound 0.316 µM): 88.2%
- viability, T/C (second compound 10 µM, first compound 1 µM): 91.3%
- viability, T/C (second compound 10 µM, first compound 3.16 µM): 99.9%
- viability, T/C (second compound 10 µM, first compound 10 µM): 75.1%

- IC50 (curve of compound): > 10 µM
SMILES: CC(Cn1ccc(-c2ccc(C#N)c(Cl)c2)n1)NC(=O)c1cc(C(C)O)[nH]n1 (centres undefined)
- viability, T/C (compound 0.0316 µM): 92.4% and 103% (2×) and 102%
- viability, T/C (compound 0.1 µM): 107% [middle of 4 runs]
- viability, T/C (compound 0.316 µM): 102% [middle of 4 runs]
- viability, T/C (compound 1 µM): 95.1% and 107% (2×) and 91.3%
- viability, T/C (compound 3.16 µM): 108% and 104% (2×) and 96.2%
- viability, T/C (compound 10 µM): 104% [middle of 4 runs]
